One data set deals with human integrin αvβ5 (Homo sapiens, UniProt P06756+P18084). Put plainly: Evaluation of integrin binding property (surface plasmon resonance, Biacore 3000, immobilized cyclic peptide). The conditions noted are these: surface plasmon resonance, immobilized cyclic peptide, human integrin αvβ5; read-out: Binding activity (integrin binding property, dissociation constant rank). Summed up:
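Human αvβ5 (30-1,000 nM) flowed for 10 min at 25 °C over immobilized cyclic peptide in 20 mM HEPES, 150 mM NaCl, 5 mM MgCl2, pH 7.4, followed by 30 min running buffer and 0.5 M EDTA regeneration. Dissociation constant from peptide minus unimmobilized channel, scored into standard grades.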

Data set [1] can be described thus: Evaluation of molecule stability (alkali treatment, residual rate by LC/MS). In kind it is physicochemical. Particulars: alkali treatment, residual rate by LC/MS. The method in brief: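 Stability read as percent of summed LC/MS peak area remaining versus untreated peptide (C18, 45 °C, 10 mM ammonium formate pH 3, ESI positive/negative). Treatment: 500 μM peptide in water plus an equivalent of 1 M NaOH, 15 °C for 3 hours.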

Starred links: 1 amine or outer side, 2 acyl side, 3 side chain; linkers in the order of their positions; H or OH if unused. Positions of bridges follow the written chain, without caps; N, C: chain ends. Non-standard residues stand in square brackets, D forms with d. Residues, ends and D or L forms follow the SMILES beside them. hCys = N[C@@H](CCS)C(=O)O; Dab = NCC[C@H](N)C(=O)O; X2 = O=C(C[*:1])[*:2]

human integrin αvβ5, sequence (P06756 31-1048): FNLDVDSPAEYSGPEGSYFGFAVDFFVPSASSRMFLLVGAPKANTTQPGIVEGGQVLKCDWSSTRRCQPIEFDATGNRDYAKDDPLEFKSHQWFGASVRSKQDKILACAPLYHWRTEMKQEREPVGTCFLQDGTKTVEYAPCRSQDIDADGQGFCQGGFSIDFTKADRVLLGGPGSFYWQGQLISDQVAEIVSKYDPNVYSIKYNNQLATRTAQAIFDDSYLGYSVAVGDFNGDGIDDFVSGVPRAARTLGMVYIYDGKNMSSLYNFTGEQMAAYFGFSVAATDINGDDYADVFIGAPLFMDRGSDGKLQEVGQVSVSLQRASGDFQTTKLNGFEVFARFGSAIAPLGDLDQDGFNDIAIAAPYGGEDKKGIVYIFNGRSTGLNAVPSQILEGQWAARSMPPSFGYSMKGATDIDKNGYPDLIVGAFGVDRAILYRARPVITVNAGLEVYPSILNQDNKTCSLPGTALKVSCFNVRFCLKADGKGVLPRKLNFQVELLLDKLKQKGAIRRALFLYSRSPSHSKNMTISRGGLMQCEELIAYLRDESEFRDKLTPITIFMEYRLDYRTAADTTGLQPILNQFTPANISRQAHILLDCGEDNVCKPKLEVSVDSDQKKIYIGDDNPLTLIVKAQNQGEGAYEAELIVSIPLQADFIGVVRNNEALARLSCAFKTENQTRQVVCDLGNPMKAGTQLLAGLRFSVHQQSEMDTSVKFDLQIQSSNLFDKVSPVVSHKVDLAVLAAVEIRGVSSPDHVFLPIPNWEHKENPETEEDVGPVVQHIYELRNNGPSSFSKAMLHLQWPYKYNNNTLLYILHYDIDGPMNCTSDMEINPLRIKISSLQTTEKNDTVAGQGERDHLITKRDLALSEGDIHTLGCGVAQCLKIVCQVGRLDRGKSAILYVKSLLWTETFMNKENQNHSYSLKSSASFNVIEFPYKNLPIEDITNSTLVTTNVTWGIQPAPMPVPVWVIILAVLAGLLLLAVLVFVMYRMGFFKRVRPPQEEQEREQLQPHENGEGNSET
human integrin αvβ5, sequence (P18084 24-799): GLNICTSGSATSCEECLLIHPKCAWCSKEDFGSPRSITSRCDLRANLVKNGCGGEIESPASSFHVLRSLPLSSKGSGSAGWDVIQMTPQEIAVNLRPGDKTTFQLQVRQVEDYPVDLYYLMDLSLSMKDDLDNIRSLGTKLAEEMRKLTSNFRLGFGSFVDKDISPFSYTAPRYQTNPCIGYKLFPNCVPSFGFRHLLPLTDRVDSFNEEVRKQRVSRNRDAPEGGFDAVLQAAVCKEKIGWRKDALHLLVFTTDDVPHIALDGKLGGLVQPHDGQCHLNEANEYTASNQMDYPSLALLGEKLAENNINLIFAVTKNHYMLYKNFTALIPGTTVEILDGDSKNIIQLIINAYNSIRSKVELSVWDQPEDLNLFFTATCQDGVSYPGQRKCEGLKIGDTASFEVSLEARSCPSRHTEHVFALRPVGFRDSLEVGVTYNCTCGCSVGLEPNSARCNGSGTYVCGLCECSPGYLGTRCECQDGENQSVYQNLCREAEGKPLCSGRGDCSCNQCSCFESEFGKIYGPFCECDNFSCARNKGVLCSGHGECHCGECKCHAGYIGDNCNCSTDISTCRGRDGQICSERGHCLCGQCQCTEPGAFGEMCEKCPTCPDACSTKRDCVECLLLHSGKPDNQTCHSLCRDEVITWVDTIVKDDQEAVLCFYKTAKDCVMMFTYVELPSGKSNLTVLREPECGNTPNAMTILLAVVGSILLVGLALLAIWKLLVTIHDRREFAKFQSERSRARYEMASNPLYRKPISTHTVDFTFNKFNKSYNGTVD

For `CC(C)[C@@H]1NC(=O)[C@@H](NC(=O)[C@H](C)NC(=O)[C@H](CCCCN)NC(=O)[C@H](CCCCN)NC(=O)[C@@H](N)CCCCN)CCSCC(=O)NCC[C@@H](C(=O)N[C@@H](C)C(=O)O)NC(=O)[C@H](C)NC(=O)[C@H](Cc2ccccc2)NC(=O)[C@H]([C@@H](C)O)NC(=O)[C@H](CC(=O)O)NC(=O)CNC(=O)[C@H](CCCNC(=N)N)NC(=O)[C@@H]2CCCN2C1=O` [Cyclic peptide 108, KKKA-(Hcy)-VPRGDTFA(Dab(acetyl))A] (H-KKKA[hCys]VPRGDTFA[Dab]A-OH; linker 5-14 via X2), the Kd on human integrin αvβ5 is < 50 nM. The “Stability (molecule stability, residual rate of the cyclic peptide rank)” value in data set [1] is on record as “A (The residual rate of the cyclic peptide is 70% or more.)”.

The values are drawn from patent US12673975B2, “Cyclic peptide, cell scaffold material, cell separating material, and medium” (FUJIFILM Corporation, priority 2019, dated 2026).
